Test results from US12077503B2, “Substituted cyclic amides and their use as herbicides” (FMC CORPORATION, priority 2015, dated 2024).

Experiments:
Type in all cases: in vivo
[1] = system: barnyardgrass (Echinochloa crus-galli); test: Test A postemergence; conditions: Echinochloa crus-galli, post-emergence, 240 h
Method in brief: (§1)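 Visual injury scores from 0, no effect, to 100, complete control, were assigned versus untreated controls roughly 10 d after treatment in the greenhouse. Test chemicals, formulated with surfactant in a non-phytotoxic solvent, were applied to planted seeds as a preemergence soil spray or postemergence to one- to two-leaf plants 2 to 10 cm tall, in loam–sand soil.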

[2] = system: ragweed (common ragweed, Ambrosia elatior); test: Test A postemergence; conditions: Ambrosia artemisiifolia, post-emergence, 240 h
Method in brief: as §1

[3] = system: wheat (Triticum aestivum); test: Test A postemergence; conditions: Triticum aestivum, post-emergence, 240 h
Method in brief: as §1

[4] = system: blackgrass (Alopecurus myosuroides); test: Test A postemergence; conditions: Alopecurus myosuroides, post-emergence, 240 h
Method in brief: as §1

[5] = system: giant foxtail (Setaria faberii); test: Test A postemergence; conditions: Setaria faberi, post-emergence, 240 h
Method in brief: as §1

corn (Zea mays) = test: Test A postemergence; conditions: Zea mays, post-emergence, 240 h
Method in brief: as §1

Kochia (Kochia scoparia) [6] = test: Test A postemergence; conditions: Bassia scoparia, post-emergence, 240 h
Method in brief: as §1

[7] = system: pigweed (Amaranthus retroflexus); test: Test A postemergence; conditions: Amaranthus retroflexus, post-emergence, 240 h
Method in brief: as §1

[8] = system: ryegrass, Italian (Italian ryegrass, Lolium multiflorum); test: Test A postemergence; conditions: Lolium multiflorum, post-emergence, 240 h
Method in brief: as §1

[9] = system: Galium (catchweed bedstraw, Galium aparine); test: Test A postemergence; conditions: Galium, post-emergence, 240 h
Method in brief: as §1

[10] = system: barnyardgrass (Echinochloa crus-galli); test: Test A preemergence; conditions: Echinochloa crus-galli, pre-emergence, 240 h, 0 to 100 scale where 0 is no effect and 100 is complete control, read-out: Barnyardgrass plant response rating
Method in brief: as §1

[11] = system: ragweed (common ragweed, Ambrosia elatior); test: Test A preemergence; conditions: Ambrosia artemisiifolia, pre-emergence, 240 h, 0 to 100 scale where 0 is no effect and 100 is complete control, read-out: Ragweed plant response rating
Method in brief: as §1

[12] = system: giant foxtail (Setaria faberii); test: Test A preemergence; conditions: Setaria faberi, pre-emergence, 240 h, 0 to 100 scale where 0 is no effect and 100 is complete control, read-out: Foxtail, Giant plant response rating
Method in brief: as §1

Kochia (Kochia scoparia) [13] = test: Test A preemergence; conditions: Bassia scoparia, pre-emergence, 240 h, 0 to 100 scale where 0 is no effect and 100 is complete control, read-out: Kochia plant response rating
Method in brief: as §1

[14] = system: pigweed (Amaranthus retroflexus); test: Test A preemergence; conditions: Amaranthus retroflexus, pre-emergence, 240 h, 0 to 100 scale where 0 is no effect and 100 is complete control, read-out: Pigweed plant response rating
[15] = system: ryegrass, Italian (Italian ryegrass, Lolium multiflorum); test: Test A preemergence; conditions: Lolium multiflorum, pre-emergence, 240 h, 0 to 100 scale where 0 is no effect and 100 is complete control, read-out: Ryegrass, Italian plant response rating
Method in brief: as §1

[16] = system: barnyardgrass (Echinochloa crus-galli); test: Test B flooded paddy test; conditions: Echinochloa crus-galli, 250 g ai/ha, Flood; 0 to 100 scale where 0 is no effect and 100 is complete control; read-out: Barnyardgrass plant response rating
Method in brief: (§2)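 Response scored visually against untreated controls, 0 = no effect and 100 = complete control, 13–15 d after treatment in the greenhouse. Compounds added to paddy water held 3 cm above soil surface. Treatment given at 2-leaf stage.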

[17] = system: ducksalad (Heteranthera limosa); test: Test B flooded paddy test; conditions: Heteranthera limosa, 250 g ai/ha, Flood; 0 to 100 scale where 0 is no effect and 100 is complete control; read-out: Ducksalad plant response rating
Method in brief: as §2

rice (Oryra sativa) = test: Test B flooded paddy test; conditions: Oryza sativa, 250 g ai/ha, Flood; 0 to 100 scale where 0 is no effect and 100 is complete control; read-out: Rice plant response rating
Method in brief: as §2

[18] = system: sedge, umbrella (small-flower umbrella sedge, Cyperus difformis); test: Test B flooded paddy test; conditions: Cyperus difformis, 250 g ai/ha, Flood; 0 to 100 scale where 0 is no effect and 100 is complete control; read-out: Sedge, Umbrella plant response rating
Method in brief: as §2

[19] = 125 g ai/ha, preemergence, approx. 10 d

CN1C[C@H](c2cccc([Si](C)(C)C)c2)[C@@H](C(=O)Nc2cccc(F)c2F)C1=O [Compound 1166]
pest or weed control at 125 g/ha ([1]; 125 g ai/ha, postemergence, visual injury vs untreated controls after approx. 10 d, 0 = no effect, 100 = complete control, read-out: Barnyardgrass plant response rating (0 to 100 scale)): 0% | pest or weed control at 31 g/ha ([1]; Postemergence, 31 g ai/ha, visual injury after approx. 10 d, 0 to 100 scale, 0 no effect, 100 complete control, read-out: Plant response rating, Barnyardgrass): 0% | pest or weed control at 125 g/ha ([2]; 125 g ai/ha, postemergence, visual injury vs untreated controls after approx. 10 d, 0 = no effect, 100 = complete control, read-out: Ragweed plant response rating (0 to 100 scale)): 0% | pest or weed control at 31 g/ha ([2]; Postemergence, 31 g ai/ha, visual injury after approx. 10 d, 0 to 100 scale, 0 no effect, 100 complete control, read-out: Plant response rating, Ragweed): 0% | plant injury at 125 g/ha ([3]; 125 g ai/ha, postemergence, visual injury vs untreated controls after approx. 10 d, 0 = no effect, 100 = complete control, read-out: Wheat plant response rating (0 to 100 scale)): 0% | plant injury at 31 g/ha ([3]; Postemergence, 31 g ai/ha, visual injury after approx. 10 d, 0 to 100 scale, 0 no effect, 100 complete control, read-out: Plant response rating, Wheat): 0% | pest or weed control at 125 g/ha ([4]; 125 g ai/ha, postemergence, visual injury vs untreated controls after approx. 10 d, 0 = no effect, 100 = complete control, read-out: Blackgrass plant response rating (0 to 100 scale)): 0% | pest or weed control at 31 g/ha ([4]; Postemergence, 31 g ai/ha, visual injury after approx. 10 d, 0 to 100 scale, 0 no effect, 100 complete control, read-out: Plant response rating, Blackgrass): 0% | pest or weed control at 125 g/ha ([5]; 125 g ai/ha, postemergence, visual injury vs untreated controls after approx. 10 d, 0 = no effect, 100 = complete control, read-out: Foxtail, Giant plant response rating (0 to 100 scale)): 20% | pest or weed control at 31 g/ha ([5]; Postemergence, 31 g ai/ha, visual injury after approx. 10 d, 0 to 100 scale, 0 no effect, 100 complete control, read-out: Plant response rating, Foxtail, Giant): 0% | plant injury at 125 g/ha (corn (Zea mays); 125 g ai/ha, postemergence, visual injury vs untreated controls after approx. 10 d, 0 = no effect, 100 = complete control, read-out: Corn plant response rating (0 to 100 scale)): 0% | Corn plant response rating (crop injury, 0 = no effect, 100 = complete kill) at 31 g/ha (corn (Zea mays); Postemergence, 31 g ai/ha, visual injury after approx. 10 d, 0 to 100 scale, 0 no effect, 100 complete control): 0% | pest or weed control at 125 g/ha (Kochia (Kochia scoparia) [6]; 125 g ai/ha, postemergence, visual injury vs untreated controls after approx. 10 d, 0 = no effect, 100 = complete control, read-out: Kochia plant response rating (0 to 100 scale)): 0% | pest or weed control at 31 g/ha (Kochia (Kochia scoparia) [6]; Postemergence, 31 g ai/ha, visual injury after approx. 10 d, 0 to 100 scale, 0 no effect, 100 complete control, read-out: Plant response rating, Kochia): 0% | pest or weed control at 125 g/ha ([7]; 125 g ai/ha, postemergence, visual injury vs untreated controls after approx. 10 d, 0 = no effect, 100 = complete control, read-out: Pigweed plant response rating (0 to 100 scale)): 0% | pest or weed control at 31 g/ha ([7]; Postemergence, 31 g ai/ha, visual injury after approx. 10 d, 0 to 100 scale, 0 no effect, 100 complete control, read-out: Plant response rating, Pigweed): 0% | pest or weed control at 125 g/ha ([8]; 125 g ai/ha, postemergence, visual injury vs untreated controls after approx. 10 d, 0 = no effect, 100 = complete control, read-out: Ryegrass, Italian plant response rating (0 to 100 scale)): 0% | pest or weed control at 31 g/ha ([8]; Postemergence, 31 g ai/ha, visual injury after approx. 10 d, 0 to 100 scale, 0 no effect, 100 complete control, read-out: Plant response rating, Ryegrass, Italian): 0% | pest or weed control at 125 g/ha ([9]; 125 g ai/ha, postemergence, visual injury vs untreated controls after approx. 10 d, 0 = no effect, 100 = complete control, read-out: Galium plant response rating (0 to 100 scale)): 0% | pest or weed control at 31 g/ha ([9]; Postemergence, 31 g ai/ha, visual injury after approx. 10 d, 0 to 100 scale, 0 no effect, 100 complete control, read-out: Plant response rating, Galium): 0% | pest or weed control at 31 g/ha ([10]; 31 g ai/ha, Preemergence): 0% | pest or weed control at 125 g/ha [10, 19]: 20% | pest or weed control at 31 g/ha ([11]; 31 g ai/ha, Preemergence): 0% | pest or weed control at 125 g/ha [11, 19]: 0% | pest or weed control at 31 g/ha ([12]; 31 g ai/ha, Preemergence): 20% | pest or weed control at 125 g/ha [12, 19]: 80% | pest or weed control at 31 g/ha (Kochia (Kochia scoparia) [13]; 31 g ai/ha, Preemergence): 0% | pest or weed control at 125 g/ha (Kochia (Kochia scoparia) [13]; [19]): 0% | pest or weed control at 31 g/ha ([14]; 31 g ai/ha, Preemergence): 0% | pest or weed control at 125 g/ha [14, 19]: 0% | pest or weed control at 31 g/ha ([15]; 31 g ai/ha, Preemergence): 0% | pest or weed control at 125 g/ha [15, 19]: 0% | pest or weed control at 250 g/ha [16]: 40% | pest or weed control at 250 g/ha [17]: 30% | pest or weed control at 250 g/ha (rice (Oryra sativa)): 25% | pest or weed control at 250 g/ha [18]: 0%
